The data set relates to Anopheles mosquitoe species. As to the kind of experiment: Lethality of drug to Anopheles mosquitoes. As to conditions: 7 μg/ml (estimated ED 50 of Pyremethamine).

Molecules are shown by their SMILES.

On to `CCc1nc(N)nc(N)c1-c1ccc(Cl)cc1` [Pyremethamine], for which the “lethality to mosquitoes at the estimated ED50” value is listed as “not lethal”.

(Values after US20100247485A1, “FORMULATIONS AND DEVICES FOR […] TO […] MICR[…] ARTHOPODS” (MEVLABS, INC., priority 2007, published 2010).)
